Data on 21 molecules can be found in patent publication US10221171B2, “Oxathiazole thiazolium Hsp 70 inhibitors” (THE REGENTS OF THE UNIVERSITY OF CALIFORNIA, priority 2015, dated 2019).

Each structure is given as a SMILES string. Read-outs that look alike come from different tables or passages of the source.

What all share (assay type): cell-based
One assay deals with MCF-7. Kind of assay: MTT cell viability assay, MCF-7. To be noted: Homo sapiens, MTT, 72-hour incubation, read-out: IC50/μM MCF-7. How it is done:
(§1) Cells were then treated with compound at various concentrations in 0.2 mL media. After the 72-hour incubation period, cells were washed in PBS (3×100 μL), and 10 μL MTT reagent was added with 100 μL fresh media. Cells were then incubated for 4 hr in a humidified chamber at 37° C. with 5% CO2. Insoluble formazan crystals were solubilized by addition of 0.1 mL detergent solution (4 hr at room temp., dark). Resulting colored solutions were then quantified at an absorbance of 570 nm.

The next assay relates to MDA-MB-231. Kind of assay: MTT cell viability assay, MDA-MB-231. To be noted: Homo sapiens. As for the experimental part:
as §1

Another assay concerns MEF (C57BL/6). Kind of assay: MTT cell viability assay, MEF (C57BL/6). The settings on record: Mus musculus. As for the experimental part: as §1
The mark [1] stands for this setting: MTT, 72-hour incubation, read-out: IC50/μM MEF (C57BL/6).
Where [2] appears, read: MDA-MB-231, 72 h, 72-hour incubation.
[3] abbreviates: 72 h, read-out: IC50/μM MEF (C57BL/6), MTT, 72-hour incubation.

As to `CCn1c(=O)/c(=C2\Sc3cc(F)ccc3N2C)s/c1=C\c1scc[n+]1Cc1c(C)noc1C` [JG-268], the IC50 in the assay on MCF-7 (MCF7) was over 5 µM; in the assay on MDA-MB-231 (MDA-MB-231, 72-hour incubation) it was over 20 µM; in the assay with MEF (C57BL/6) (setting [1]) it was over 10 µM.

As for `CCn1c(=O)/c(=C2\Sc3cc(Cl)ccc3N2C)s/c1=C\c1scc[n+]1CCc1ccccc1` [JG-269], the IC50 with MCF-7 (MCF7) was found to be 0.18 ± 0.01 µM; in the assay on MDA-MB-231 (MDA-MB-231, 72-hour incubation), 0.26 ± 0.04 µM; in the assay with MEF (C57BL/6) (setting [1]), 2.2 ± 0.1 µM.

As to `CCn1c(=O)/c(=C2\Sc3cc(C)ccc3N2C)s/c1=C\c1scc[n+]1Cc1ccccc1OC(F)(F)F` [JG-270], the IC50 in the assay with MCF-7 (MCF7, 72 h) stood at 0.064 ± 0.005 µM; in the assay with MDA-MB-231 (setting [2]) it was 0.077 ± 0.009 µM; in the assay on MEF (C57BL/6) (setting [3]), 0.75 ± 0.05 µM.

Regarding `CCn1c(=O)/c(=C2\Sc3cc(Cl)ccc3N2C)s/c1=C\c1scc[n+]1Cc1cccc(Cl)c1` [JG-271], the IC50 worked out at 0.26 ± 0.02 µM in the assay with MCF-7 (MCF7, 72 h); 0.51 ± 0.06 µM in the assay on MDA-MB-231 (setting [2]); 0.69 ± 0.03 µM with MEF (C57BL/6) (setting [3]).

As for `CCn1c(=O)/c(=C2\Sc3cc(F)ccc3N2C)s/c1=C\c1scc[n+]1Cc1cccc(Cl)c1` [JG-272], the IC50 with MCF-7 (MCF7) was determined as 0.36 ± 0.02 µM; in the assay with MDA-MB-231 (MDA-MB-231, 72-hour incubation), 0.77 ± 0.1 µM; in the assay with MEF (C57BL/6) (setting [1]) it was 0.62 ± 0.03 µM.

In the case of `CCn1c(=O)/c(=C2\SCCN2C)s/c1=C\c1ccccn1` [JG-273], the IC50 was over 5 µM with MCF-7 (MCF7); over 20 µM in the assay on MDA-MB-231 (MDA-MB-231, 72-hour incubation); over 10 µM in the assay on MEF (C57BL/6) (setting [1]).

On to `CCn1c(=O)/c(=C2\Sc3cc(Cl)ccc3N2C)s/c1=C\c1scc[n+]1Cc1nc(C)sc1C` [JG-274], for which the IC50 in the assay on MCF-7 (MCF7) amounted to 0.098 ± 0.008 µM; in the assay with MDA-MB-231 (MDA-MB-231, 72-hour incubation), 0.08 ± 0.008 µM; in the assay on MEF (C57BL/6) (setting [1]), 4.2 ± 0.4 µM.

As for `CCn1c(=O)/c(=C2\Sc3cc(F)ccc3N2C)s/c1=C\c1scc[n+]1Cc1nc(C)sc1C` [JG-275], the IC50 with MCF-7 (MCF7) was found to be 0.27 ± 0.03 µM; in the assay with MDA-MB-231 (MDA-MB-231, 72-hour incubation) it was 0.3 ± 0.03 µM; in the assay on MEF (C57BL/6) (setting [1]), 1.6 ± 0.1 µM.

As for `C=CCn1c(=O)/c(=C2\Sc3ccccc3N2C)s/c1=C\c1scc[n+]1Cc1ccccc1` [JG-276], the IC50 in the assay on MCF-7 (MCF7) worked out at 0.24 ± 0.02 µM; in the assay on MDA-MB-231 (MDA-MB-231, 72-hour incubation), 0.27 ± 0.03 µM; in the assay with MEF (C57BL/6) (setting [1]) it was 2.5 ± 0.1 µM.

With `CN1/C(=c2\s/c(=C\c3scc[n+]3Cc3ccccc3)n(C)c2=O)Sc2ccccc21` [JG-277], the IC50 in the assay with MCF-7 (MCF7) was 0.39 ± 0.03 µM; in the assay on MDA-MB-231 (MDA-MB-231, 72-hour incubation) it was 0.49 ± 0.05 µM; in the assay with MEF (C57BL/6) (setting [1]), 4.1 ± 0.2 µM.

For the molecule `CCn1c(=O)/c(=C2\Sc3cc(Br)ccc3N2C)s/c1=C\c1scc[n+]1Cc1ccsc1` [JG-278], the IC50 was 0.39 ± 0.06 µM in the assay with MCF-7 (MCF7); 0.23 ± 0.04 µM in the assay with MDA-MB-231 (MDA-MB-231, 72-hour incubation); 3.4 ± 0.2 µM with MEF (C57BL/6) (setting [1]).

For `CCn1c(=O)/c(=C2\Sc3cc(C)ccc3N2C)s/c1=C\c1scc[n+]1Cc1ccsc1` [JG-279], the IC50 came out at 0.14 ± 0.03 µM with MCF-7 (MCF7); 0.15 ± 0.01 µM in the assay on MDA-MB-231 (MDA-MB-231, 72-hour incubation); 2.2 ± 0.1 µM in the assay with MEF (C57BL/6) (setting [1]).

With `C=CCn1c(=O)/c(=C2\Sc3cc(Cl)ccc3N2C)s/c1=C\c1scc[n+]1Cc1ccccc1` [JG-280], the IC50 with MCF-7 (MCF7, 72 h) was 0.17 ± 0.02 µM; in the assay with MDA-MB-231 (MDA-MB-231, 72-hour incubation), 0.1 ± 0.01 µM; in the assay with MEF (C57BL/6) (setting [3]) it was 2.4 ± 0.1 µM.

For the molecule `CN1/C(=c2\s/c(=C\c3scc[n+]3Cc3ccccc3)n(C)c2=O)Sc2cc(Cl)ccc21` [JG-281], the IC50 amounted to 0.6 ± 0.06 µM in the assay with MCF-7 (MCF7); 0.16 ± 0.02 µM in the assay with MDA-MB-231 (MDA-MB-231, 72-hour incubation); 5.7 ± 0.3 µM in the assay on MEF (C57BL/6) (setting [1]).

Turning to `CN1/C(=c2\s/c(=C\c3scc[n+]3Cc3ccccc3)n(C)c2=O)Sc2cc(F)cc(F)c21` [JG-282], the IC50 in the assay with MCF-7 (MCF7) was found to be 0.29 ± 0.04 µM; in the assay with MDA-MB-231 (MDA-MB-231, 72-hour incubation) it was 0.26 ± 0.03 µM; in the assay on MEF (C57BL/6) (setting [1]) it was 2.5 ± 0.1 µM.

Regarding `CCn1c(=O)/c(=C2\Sc3cc(C)ccc3N2C)s/c1=C\c1scc[n+]1Cc1ccccc1Cl` [JG-283], the IC50 came out at 0.063 ± 0.007 µM in the assay with MCF-7 (MCF7); 0.088 ± 0.005 µM with MDA-MB-231 (MDA-MB-231, 72-hour incubation); 0.45 ± 0.02 µM in the assay with MEF (C57BL/6) (setting [1]).

For the molecule `CCn1c(=O)/c(=C2\Sc3cc(C)ccc3N2C)s/c1=C\c1scc[n+]1Cc1ccccc1C` [JG-284], the IC50 with MCF-7 (MCF7) is 0.09 ± 0.006 µM; in the assay with MDA-MB-231 (MDA-MB-231, 72-hour incubation), 0.09 ± 0.005 µM; in the assay on MEF (C57BL/6) (setting [1]) it was 0.64 ± 0.03 µM.

Regarding `CCn1c(=O)/c(=C2\Sc3cc(C)ccc3N2C)s/c1=C\c1scc[n+]1Cc1ccccc1C(F)(F)F` [JG-285], the IC50 came out at 0.078 ± 0.003 µM with MCF-7 (MCF7); 0.062 ± 0.01 µM with MDA-MB-231 (MDA-MB-231, 72-hour incubation); 0.66 ± 0.06 µM in the assay on MEF (C57BL/6) (setting [1]).

`CCn1c(=O)/c(=C2\Sc3cc(C)ccc3N2C)s/c1=C\c1scc[n+]1Cc1ccc(C(F)(F)F)o1` [JG-286]: the IC50 with MCF-7 (MCF7) turned out to be 0.27 ± 0.02 µM; in the assay with MDA-MB-231 (MDA-MB-231, 72-hour incubation), 0.14 ± 0.01 µM; with MEF (C57BL/6) (setting [1]), 5 ± 0.6 µM.

With `CCn1c(=O)/c(=C2\Sc3cc(Cl)ccc3N2C)s/c1=C\c1scc[n+]1Cc1ccccc1S(C)(=O)=O` [JG-287], the IC50 in the assay on MCF-7 (MCF7) is 1.73 ± 0.2 µM; in the assay on MDA-MB-231 (MDA-MB-231, 72-hour incubation), 1.3 ± 0.3 µM; in the assay on MEF (C57BL/6) (setting [1]) it was over 10 µM.

In the case of `CCn1c(=O)/c(=C2\Sc3cc(F)ccc3N2C)s/c1=C\c1scc[n+]1Cc1ccccc1S(C)(=O)=O` [JG-288], the IC50 in the assay on MCF-7 (MCF7) is 1.97 ± 0.11 µM; with MDA-MB-231 (MDA-MB-231, 72-hour incubation), 0.64 ± 0.08 µM; in the assay on MEF (C57BL/6) (setting [1]) it was over 10 µM.
